Columns and labels:
[1] = Tissue distribution studies (tissue concentrations by LC-MS/MS); assay type: in vivo, male C57Bl/6 mice; conditions: for AUC(4-hr) Heart / AUC(4-hr) Liver: mice, targeted dose 0.100 mg/kg; for brain levels of parent acid Compound 15: PO dosing (0.1 mg/kg) of the amide prodrug, compared to dosing Compound 15 itself, FIG. 1
Experimental: For tissue concentration studies in male C57Bl/6 mice, test compounds are formulated as NMP/solutol/PBS solution, at a concentration of 0.05 mg/mL and dosed at 2 mL/kg with the targeted dose of 0.100 mg/kg via SC injection or oral dosing. […] The pharmacokinetic parameters are determined by non-compartmental methods using WinNonlin. Area under the drug curves (AUC) values are determined by trapezoidal approximation; tissue-to-tissue ratios are determined by comparing AUC values.

TRα = molecular target: T1, TRα (Homo sapiens, UniProt P10827); experiment: Thyroid-hormone reporter-gene assay (TRα-Gal4 hybrid, luciferase, HEK293); assay type: cell-based; conditions: reporter cells, 24 hr incubation; Table 2; read-out: TRα (EC50)
T1 construct: expressed in transfected cells; host or cells: HEK293
T1 sequence (P10827 163-410 isoform P10827-2 limits assumed): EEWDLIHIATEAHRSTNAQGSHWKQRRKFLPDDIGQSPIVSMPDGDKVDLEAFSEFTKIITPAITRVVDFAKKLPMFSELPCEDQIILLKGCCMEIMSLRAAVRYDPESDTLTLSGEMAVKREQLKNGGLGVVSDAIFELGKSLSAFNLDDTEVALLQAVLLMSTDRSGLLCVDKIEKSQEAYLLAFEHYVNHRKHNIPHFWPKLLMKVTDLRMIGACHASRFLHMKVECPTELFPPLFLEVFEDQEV
Experimental: (§1) Compounds were tested for thyroid-hormone receptor activity using TR reporter-gene assays. Reporter cells used in the assays express a TR-receptor hybrid (either TRα or TRβ) in which the native N-terminal DNA binding domain (DBD) has been replaced with that of the yeast Gal4 DBD. The reporter gene, firefly luciferase, is functionally linked to the Gal4 upstream activation sequence (UAS). Both cell lines were derived from human embryonic kidney (HEK293).
(§2) Step 1: A suspension of reporter cells was prepared in cell recovery medium containing 10% charcoal-stripped FBS, and dispensed into assay plates. The plates were pre-incubated for 6 hours in a cell culture incubator (37° C./5% CO2/85% humidity).
(§3) These intermediate stocks were subsequently diluted directly into compound screening medium containing 10% charcoal-stripped FBS to generate “2×-concentration” treatment media (containing 0.2, 0.4 or 0.8% DMSO).
(§4) Step 3: At the end of the pre-incubation period, culture media were discarded from the assay plates, and all wells received 100 μl of compound screening medium. 100 μl of each of the previously prepared “2×-concentration” treatment media were dispensed into duplicate assay wells, thereby achieving the desired final treatment concentrations. The final concentration of DMSO in all assay wells was 0.1, 0.2 or 0.4%. Assay plates were incubated for 24 hr in a cell culture incubator (37° C./5% CO2/85% humidity).
(§5) Step 4: At the 24 h assay endpoint, treatment media were discarded and 100 μl/well of luciferase detection reagent was added. Relative luminometer units (RLUs) were quantified from each assay well.

TRβ = molecular target: T2, TRβ (Homo sapiens, UniProt P10828); experiment: Thyroid-hormone reporter-gene assay (TRβ-Gal4 hybrid, luciferase, HEK293); assay type: cell-based; conditions: Table 2; for T3-SI (selectivity index): calculated as EC50 (TRα)/EC50 (TRβ); for EC50: reporter cells, 24 hr incubation, read-out: TRβ (EC50)
T2 construct: expressed in transfected cells; host or cells: HEK293
T2 sequence (P10828 217-461 limits assumed): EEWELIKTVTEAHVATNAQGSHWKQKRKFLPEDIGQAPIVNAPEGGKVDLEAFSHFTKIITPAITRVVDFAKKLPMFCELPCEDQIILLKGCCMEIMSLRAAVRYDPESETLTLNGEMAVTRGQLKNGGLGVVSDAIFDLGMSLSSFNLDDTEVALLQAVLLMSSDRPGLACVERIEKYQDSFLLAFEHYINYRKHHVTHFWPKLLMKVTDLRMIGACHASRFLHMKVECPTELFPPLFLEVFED
Experimental: as §1, §2, §3, §4, §5

Compound | AUC(4-hr) Heart [1] | AUC(4-hr) Liver [1] | EC50 (TRα) | T3-SI (selectivity index) (TRβ) | EC50 (TRβ) | brain levels of parent acid Compound 15 [1]
CC(C)c1cc(Cc2c(Cl)cc(OCC(=O)O)c(F)c2Cl)ccc1O [Compound 62, 2-(3,5-dichloro-2-fluoro-4-(4-hydroxy-3-isopropylbenzyl)phenoxy)acetic acid] | 24.4 ng-hr/g of tissue | 550 ng-hr/g of tissue | – | – | – | –
CC(C)c1c(O)ccc(Cc2c(Cl)cc(OCC(=O)N(C)C)cc2Cl)c1F [Compound 17, 2-(3,5-dichloro-4-(2-fluoro-4-hydroxy-3-isopropylbenzyl)phenoxy)-N,N-dimethylacetamide] | – | – | – | – | – | increase in the brain concentration of the parent acid
CNC(=O)COc1cc(Cl)c(Cc2ccc(O)c(C(C)C)c2F)c(Cl)c1 [Compound 16, 2-(3,5-dichloro-4-(2-fluoro-4-hydroxy-3-isopropylbenzyl)phenoxy)-N-methylacetamide] | – | – | – | – | – | dramatic increase in brain concentration of the parent acid
CC(C)c1c(O)ccc(Cc2c(Cl)cc(OCC(=O)O)cc2Cl)c1F [Compound 15, 2-(3,5-dichloro-4-(2-fluoro-4-hydroxy-3-isopropylbenzyl)phenoxy)acetic acid] | 25.8 ng-hr/g of tissue | 580 ng-hr/g of tissue | – | – | – | –
CCc1c(F)c(OCC(=O)O)cc(Cl)c1Cc1ccc(O)c(C(C)C)c1 [Compound 69, 2-(5-chloro-3-ethyl-2-fluoro-4-(4-hydroxy-3-isopropylbenzyl)phenoxy)acetic acid] | – | – | > 1000 nM | ++ (3×<T3-SI≤30×) | 100 to 1000 nM | –

Continued, in another order:

AUC(4-hr) Heart [1] | AUC(4-hr) Liver [1] | EC50 (TRα) | T3-SI (selectivity index) (TRβ) | EC50 (TRβ) | Compound | brain levels of parent acid Compound 15 [1]
– | – | 100 to 1000 nM | +++ (T3-SI>30×) | 10 to 100 nM | CNC(=O)COc1cc(C)c(Cc2ccc(O)c(C(C)C)c2)c(Cl)c1F [Compound 143, 2-(3-chloro-2-fluoro-4-(4-hydroxy-3-isopropylbenzyl)-5-methylphenoxy)-N-methylacetamide] | –
– | – | 10 to 100 nM | ++ (3×<T3-SI≤30×) | 10 to 100 nM | CC(C)c1cc(Cc2c(Cl)cc(OCC(=O)O)c(Cl)c2Cl)ccc1O [Compound 89, 2-(2,3,5-trichloro-4-(4-hydroxy-3-isopropylbenzyl)phenoxy)acetic acid] | –
